Results from US11110102B2, “Antifungal agents used in combination” (Scynexis, Inc., priority 2017, dated 2021).

Test: Solubility in water
Type: physicochemical
Excerpt: Each drug was initially diluted in either sterile, distilled water or in DMSO, depending on whether the drug was water-soluble or water-insoluble, respectively.

Which Solubility in water does the source give for `CC(C)[C@@H](C)[C@@]1(C)CC[C@]2(C)[C@H]3CC[C@@H]4[C@@]5(COC[C@@]4(C)[C@@H](OC[C@](C)(N)C(C)(C)C)[C@H](n4ncnc4-c4ccncc4)C5)C3=CC[C@@]2(C)[C@@H]1C(=O)O` [SCY-078, (1S,4aR,6aS,7R,8R,10aR,10bR,12aR,14R,15R)-15-[[(2R)-2-amino-2,3,3-trimethylbutyl]oxy]-8-[(1R)-1,2-dimethylpropyl]-14-[5-(4-pyridinyl)-1H-1,2,4-triazol-1-yl]-1,6,6a,7,8,9,10,10a,10b,11,12,12a-dodecahydro-1,6a,8,10a-tetramethyl-4H-1,4a-propano-2H-phenanthro[1,2-c]pyran-7-carboxylic acid] here?
The Solubility in water was “not soluble in water”.
